Assay results taken from US20230257372A1 (CHONG KUN DANG PHARMACEUTICAL CORP., priority 2020, published 2023).
pIC50: −log10 of the molar value. Like-named read-outs stand apart in the source and are kept apart here.

Experiments:
[1] = biological target: T1, human recombinant HDAC1 (Homo sapiens, UniProt Q13547); test: HDAC1 enzyme activity inhibition (HDAC Fluorimetric Drug Discovery Kit); format: biochemical; settings: read-out: HDAC1
T1 construct: purchased Enzo Life Science, Inc. BML-SE456
Procedure, shortened: (§1)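 Compounds in 5-fold dilution series were incubated with […] enzyme and 10 μM substrate at 30° C for 60 minutes. Fluor de Lys Developer II was then added for 30 minutes to stop the reaction and develop the fluorescent signal.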

[2] = biological target: T2, human recombinant HDAC6 (Homo sapiens, UniProt Q9UBN7); test: HDAC6 enzyme activity inhibition (HDAC Fluorimetric Drug Discovery Kit); format: biochemical
T2 construct: purchased Calbiochem Inc. 382180
T2 sequence (Q9UBN7 1-1215): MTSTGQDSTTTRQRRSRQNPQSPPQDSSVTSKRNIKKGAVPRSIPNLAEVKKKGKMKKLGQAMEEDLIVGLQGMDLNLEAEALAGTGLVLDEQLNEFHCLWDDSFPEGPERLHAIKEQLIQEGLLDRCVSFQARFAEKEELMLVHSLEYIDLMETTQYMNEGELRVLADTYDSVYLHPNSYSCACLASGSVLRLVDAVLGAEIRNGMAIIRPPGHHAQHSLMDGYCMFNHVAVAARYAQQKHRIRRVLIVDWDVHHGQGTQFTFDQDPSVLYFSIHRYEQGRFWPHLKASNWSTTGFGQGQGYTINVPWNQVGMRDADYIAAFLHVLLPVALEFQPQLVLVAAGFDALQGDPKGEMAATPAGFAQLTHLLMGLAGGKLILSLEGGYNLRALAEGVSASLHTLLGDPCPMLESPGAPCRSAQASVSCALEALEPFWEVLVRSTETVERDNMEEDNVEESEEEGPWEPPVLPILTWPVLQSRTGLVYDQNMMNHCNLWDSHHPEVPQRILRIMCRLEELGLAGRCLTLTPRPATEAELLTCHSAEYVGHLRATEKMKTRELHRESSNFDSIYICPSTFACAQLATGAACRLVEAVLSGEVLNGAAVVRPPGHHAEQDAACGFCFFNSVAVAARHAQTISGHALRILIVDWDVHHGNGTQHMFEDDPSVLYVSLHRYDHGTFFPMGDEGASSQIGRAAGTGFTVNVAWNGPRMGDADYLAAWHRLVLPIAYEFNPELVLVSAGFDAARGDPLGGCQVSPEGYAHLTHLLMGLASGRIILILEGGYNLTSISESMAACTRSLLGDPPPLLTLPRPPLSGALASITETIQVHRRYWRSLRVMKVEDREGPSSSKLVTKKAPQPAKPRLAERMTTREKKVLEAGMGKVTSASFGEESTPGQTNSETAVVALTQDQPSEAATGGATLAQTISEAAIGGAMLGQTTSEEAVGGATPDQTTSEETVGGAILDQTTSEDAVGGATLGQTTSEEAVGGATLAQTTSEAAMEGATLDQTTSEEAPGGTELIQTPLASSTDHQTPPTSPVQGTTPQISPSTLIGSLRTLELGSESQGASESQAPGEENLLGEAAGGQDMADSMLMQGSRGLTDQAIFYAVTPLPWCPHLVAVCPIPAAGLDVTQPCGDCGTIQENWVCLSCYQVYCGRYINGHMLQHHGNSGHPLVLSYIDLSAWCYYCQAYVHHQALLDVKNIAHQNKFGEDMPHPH
Procedure, shortened: as §1

[3] = human recombinant HDAC1, IC50 calculated with GraphPad Prism
[4] = human recombinant HDAC6, IC50 calculated with GraphPad Prism
[5] = human recombinant HDAC1, Fluor de Lys substrate, 30° C. 60 minutes
[6] = human recombinant HDAC6, same protocol as HDAC1

T1 sequence (Q13547 whole entry): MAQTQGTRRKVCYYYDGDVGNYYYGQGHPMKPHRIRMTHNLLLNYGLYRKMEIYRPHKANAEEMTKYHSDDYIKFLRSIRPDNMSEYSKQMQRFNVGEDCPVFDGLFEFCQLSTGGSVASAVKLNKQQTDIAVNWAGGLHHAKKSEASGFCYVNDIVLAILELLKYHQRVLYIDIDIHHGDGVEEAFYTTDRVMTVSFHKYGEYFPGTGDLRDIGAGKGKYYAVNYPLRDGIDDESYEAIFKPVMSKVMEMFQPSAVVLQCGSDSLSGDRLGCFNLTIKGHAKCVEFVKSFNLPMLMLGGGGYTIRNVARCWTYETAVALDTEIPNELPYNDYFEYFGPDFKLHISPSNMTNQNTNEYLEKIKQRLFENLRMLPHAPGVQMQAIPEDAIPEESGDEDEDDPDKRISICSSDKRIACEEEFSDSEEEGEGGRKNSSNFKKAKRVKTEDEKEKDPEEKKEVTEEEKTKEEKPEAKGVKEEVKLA

pIC50 [1, 3] | HDAC6 selectivity (fold) ([2]; HDAC1 IC50 / HDAC6 IC50) | pIC50 [2, 4] | pIC50 [1, 5] | HDAC6 selectivity (fold) ([2]; HDAC6 over HDAC1) | pIC50 [2, 6] | SMILES
 |  |  | < 4.30 | 4672 | 7.97 | CC(C)N1CC(c2cccc(-c3cn(Cc4ccc(-c5nnc(C(F)F)o5)cn4)nn3)c2)C1 [Compound 4503, 2-(difluoromethyl)-5-(6-((4-(3-(1-isopropylazetidin-3-yl)phenyl)-1H-1,2,3-triazol-1-yl)methyl)pyridin-3-yl)-1,3,4-oxadiazole]
 |  |  | < 4.30 | 2358 | 7.67 | CN(C)C1CCN(Cc2ccc(-c3cn(Cc4ccc(-c5nnc(C(F)F)o5)cn4)nn3)cc2)CC1 [Compound 4564, 1-(4-(1-((5-(5-(difluoromethyl)-1,3,4-oxadiazol-2-yl)pyridin-2-yl)methyl)-1H-1,2,3-triazol-4-yl)benzyl)-N,N-dimethylpiperidin-4-amine]
 |  |  | < 4.30 | 572 | 7.06 | CC(C)N1Cc2cccc(-c3cn(Cc4ccc(-c5nnc(C(F)F)o5)cc4F)nn3)c2C1 [Compound 4536, 2-(difluoromethyl)-5-(3-fluoro-4-((4-(2-isopropylisoindolin-4-yl)-1H-1,2,3-triazol-1-yl)methyl)phenyl)-1,3,4-oxadiazole]
 |  |  | < 4.30 | 994 | 7.30 | Fc1cc(-c2nnc(C(F)F)o2)ccc1Cn1cc(-c2ccc3c(c2)CN(C2COC2)C3)nn1 [Compound 4519, 2-(difluoromethyl)-5-(3-fluoro-4-((4-(2-(oxetan-3-yl)isoindolin-5-yl)-1H-1,2,3-triazol-1-yl)methyl)phenyl)-1,3,4-oxadiazole]
< 4.30 | 487 | 6.99 |  |  |  | FC(F)c1nnc(-c2ccc(Cn3cc(-c4cccc(CN5CC(F)(F)C5)c4)nn3)cc2)o1 [Compound 4417, 2-(4-((4-(3-((3,3-difluoroazetidin-1-yl)methyl)phenyl)-1H-1,2,3-triazol-1-yl)methyl)phenyl)-5-(difluoromethyl)-1,3,4-oxadiazole]
 |  |  | < 4.30 | 2392 | 7.68 | CC(C)N1CC(c2cccc(-c3cn(Cc4ccc(-c5nnc(C(F)F)o5)cc4)nn3)c2)C1 [Compound 4509, 2-(difluoromethyl)-5-(4-((4-(3-(1-isopropylazetidin-3-yl)phenyl)-1H-1,2,3-triazol-1-yl)methyl)phenyl)-1,3,4-oxadiazole]
 |  |  | < 4.30 | 2525 | 7.70 | CC(C)N1CCN(c2cc(-c3cn(Cc4ccc(-c5nnc(C(F)F)o5)cc4F)nn3)ccn2)CC1 [Compound 4635]
 |  |  | < 4.30 | 1628 | 7.51 | NC1(C(=O)Nc2cccc(-c3cn(Cc4ccc(-c5nnc(C(F)F)o5)cn4)nn3)c2)CCC1 [Compound 4498, 1-amino-N-(3-(1-((5-(5-(difluoromethyl)-1,3,4-oxadiazol-2-yl)pyridin-2-yl)methyl)-1H-1,2,3-triazol-4-yl)phenyl)cyclobutan-1-carboxamide]
 |  |  | < 4.30 | 1190 | 7.38 | Fc1cc(-c2nnc(C(F)F)o2)cnc1Cn1cc(-c2ccc3[nH]ncc3c2)nn1 [Compound 18920, 2-(6-((4-(1H-indazol-5-yl)-1H-1,2,3-triazol-1-yl)methyl)-5-fluoropyridin-3-yl)-5-(difluoromethyl)-1,3,4-oxadiazole]

Continued, compound first:

SMILES | pIC50 [1, 3] | HDAC6 selectivity (fold) ([2]; HDAC1 IC50 / HDAC6 IC50) | pIC50 [2, 4] | pIC50 [1, 5] | HDAC6 selectivity (fold) ([2]; HDAC6 over HDAC1) | pIC50 [2, 6]
Fc1cc(-c2nnc(C(F)F)o2)ccc1Cn1cc(-c2cccc(C3CCN(C4COC4)CC3)c2)nn1 [Compound 4293, 2-(difluoromethyl)-5-(3-fluoro-4-((4-(3-(1-(oxetan-3-yl)piperidin-4-yl)phenyl)-1H-1,2,3-triazol-1-yl)methyl)phenyl)-1,3,4-oxadiazole] | < 4.30 | 618 | 7.09 |  |  | 
O=C(O)c1cccc(-c2cn(Cc3ccc(-c4nnc(C(F)F)o4)cc3)nn2)c1 [Compound 3659, 3-(1-(4-(5-(difluoromethyl)-1,3,4-oxadiazol-2-yl)benzyl)-1H-1,2,3-triazol-4-yl)benzoic acid] | < 4.30 | 122 | 6.39 |  |  | 
FC(F)c1nnc(-c2ccc(Cn3cc(-c4ccc5c(c4)CN(C4CCC4)CC5)nn3)nc2)o1 [Compound 4212, 2-(6-((4-(2-cyclobutyl-1,2,3,4-tetrahydroisoquinolin-7-yl)-1H-1,2,3-triazol-1-yl)methyl)pyridin-3-yl)-5-(difluoromethyl)-1,3,4-oxadiazole] | < 4.30 | 1602 | 7.51 |  |  | 
FC(F)c1nnc(-c2ccc(Cn3cc(-c4ccco4)nn3)nc2)o1 [Compound 3861, 2-(difluoromethyl)-5-(6-((4-(furan-2-yl)-1H-1,2,3-triazol-1-yl)methyl)pyridin-3-yl)-1,3,4-oxadiazole] | < 4.30 | 922 | 7.27 |  |  | 
CCN1CC(N2CCc3cc(-c4cn(Cc5ccc(-c6nnc(C(F)F)o6)cc5F)nn4)ccc3C2)C1 [Compound 4392, 2-(difluoromethyl)-5-(4-((4-(2-(1-ethylazetidin-3-yl)-1,2,3,4-tetrahydroisoquinolin-6-yl)-1H-1,2,3-triazol-1-yl)methyl)-3-fluorophenyl)-1,3,4-oxadiazole] | < 4.30 | 1262 | 7.40 |  |  | 
CN1CC(N2CCC(c3cccc(-c4cn(Cc5ccc(-c6nnc(C(F)F)o6)cc5F)nn4)c3)CC2)C1 [Compound 4294, 2-(difluoromethyl)-5-(3-fluoro-4-((4-(3-(1-(1-methylazetidin-3-yl)piperidin-4-yl)phenyl)-1H-1,2,3-triazol-1-yl)methyl)phenyl)-1,3,4-oxadiazole] | < 4.30 | 791 | 7.20 |  |  | 
CN1CCN(Cc2cccc(-c3cn(Cc4ccc(-c5nnc(C(F)F)o5)cc4)nn3)c2)CC1 [Compound 4414] | < 4.30 | 627 | 7.10 |  |  | 
FC(F)c1nnc(-c2ccc(Cn3cc(-c4ccccc4N4CCOCC4)nn3)nc2)o1 [Compound 4104, 4-(2-(1-((5-(5-(difluoromethyl)-1,3,4-oxadiazol-2-yl)pyridin-2-yl)methyl)-1H-1,2,3-triazol-4-yl)phenyl)morpholin] | 4.48 | 500 | 7.18 |  |  | 
FC(F)c1nnc(-c2ccc(Cn3cc(-c4cccc5cc[nH]c45)nn3)nc2)o1 [Compound 4071, 2-(6-((4-(1H-indol-7-yl)-1H-1,2,3-triazol-1-yl)methyl)pyridin-3-yl)-5-(difluoromethyl)-1,3,4-oxadiazole] | < 4.30 | 347 | 6.84 |  |  | 
FC(F)c1nnc(-c2ccc(Cn3cc([C@@H]4CCCN4C4CC5(COC5)C4)nn3)nc2)o1 [Compound 4027, (S)-2-(6-((4-(1-(2-oxaspiro[3.3]heptan-6-yl)pyrrolidin-2-yl)-1H-1,2,3-triazol-1-yl)methyl)pyridin-3-yl)-5-(difluoromethyl)-1,3,4-oxadiazole] | < 4.30 | 10 | 5.30 |  |  | 
FC(F)c1nnc(-c2ccc(Cn3cc(-c4cccc(NC5CCCCC5)c4)nn3)cc2)o1 [Compound 4324, N-cyclohexyl-3-(1-(4-(5-(difluoromethyl)-1,3,4-oxadiazol-2-yl)benzyl)-1H-1,2,3-triazol-4-yl)aniline] | < 4.30 | 170 | 6.53 |  |  | 
